pIC50: −log10 of the molar value.
Key:
[1] = target: Cyclin-dependent kinase 4/cyclin D1 (Homo sapiens, UniProt P11802); assay: Inhibition of CDK4/Cyclin-D1 (unknown origin) using histone-H1 as substrate after 90 mins by ADP-Glo assay; type: protein-complex assay
[2] = Clearance in Sprague-Dawley rat at 2 mg/kg, iv administered as single dose by LC-MS/MS analysis; type: ADME, organism-based; conditions: in vivo
[3] = Volume of distribution at steady state in Sprague-Dawley rat at 2 mg/kg, iv administered as single dose by LC-MS/MS analysis; type: ADME, organism-based; conditions: in vivo, read-out: Vdss
[4] = target: Aurora kinase A (Homo sapiens) (UniProt O14965); assay: Inhibition of recombinant full length human His-tagged AURKA expressed in baculovirus expression system at 0.1 uM by Z'-Lyte assay relative to control
[5] = target: Cytoplasmic tyrosine-protein kinase BMX (Homo sapiens) (UniProt P51813); assay: Inhibition of recombinant full length human His-tagged BMX expressed in baculovirus expression system at 0.1 uM by TR-FRET assay relative to control
[6] = target: Casein kinase I isoform gamma-1 (Homo sapiens) (UniProt Q9HCP0); assay: Inhibition of recombinant full length human GST-tagged CK1gamma1 expressed in baculovirus expression system at 0.1 uM by Z'-Lyte assay relative to control
[7] = target: Epidermal growth factor receptor (Homo sapiens) (UniProt P00533); assay: Inhibition of recombinant human GST-tagged EGFR cytoplasmic domain expressed in baculovirus expression system at 0.1 uM by TR-FRET assay relative to control
[8] = target: G protein-coupled receptor kinase 5 (Homo sapiens) (UniProt P34947); assay: Inhibition of recombinant human full length GST-tagged GRK5 expressed in baculovirus expression system at 0.1 uM by Z'-Lyte assay relative to control
[9] = target: Serine/threonine-protein kinase PAK 1 (Homo sapiens) (UniProt Q13153); assay: Inhibition of recombinant human full length GST-tagged PAK1 expressed in baculovirus expression system at 0.1 uM by Z'-Lyte assay relative to control
[10] = target: Phosphatidylinositol 4,5-bisphosphate 3-kinase catalytic subunit delta isoform (Homo sapiens) (UniProt O00329); assay: Inhibition of PI3K delta (unknown origin) at 0.1 uM by ADP-Glo assay relative to control
[11] = test system: Proto-oncogene tyrosine-protein kinase receptor Ret (Homo sapiens), P07949 [V804L]; assay: Inhibition of recombinant human GST-tagged RET V804L mutant expressed in baculovirus expression system at 0.1 uM by Z'-Lyte assay relative to control
[12] = target: Proto-oncogene tyrosine-protein kinase Src (Homo sapiens) (UniProt P12931); assay: Inhibition of recombinant human full length His-tagged SRC expressed in baculovirus expression system at 0.1 uM by Z'-Lyte assay relative to control
[13] = target: Angiopoietin-1 receptor (Homo sapiens) (UniProt Q02763); assay: Inhibition of recombinant human GST-tagged TIE2 cytoplasmic domain expressed in baculovirus expression system at 0.1 uM by Z'-Lyte assay relative to control
[14] = target: High affinity nerve growth factor receptor (Homo sapiens) (UniProt P04629); assay: Inhibition of recombinant human His-tagged TRKA cytoplasmic domain expressed in baculovirus expression system at 0.1 uM by Z'-Lyte assay relative to control
[15] = target: Tyrosine-protein kinase receptor TYRO3 (Homo sapiens) (UniProt Q06418); assay: Inhibition of recombinant human GST-tagged TYRO3 cytoplasmic domain (451 to 890 residues) expressed in baculovirus expression system at 0.1 uM by Z'-Lyte assay relative to control
[16] = target: CDK6/cyclin D3 (Homo sapiens) (UniProt P30281+Q00534); assay: Inhibition of recombinant full length human GST-tagged CDK6/Cyclin-D3 expressed in baculovirus expression system at 1 uM by TR-FRET assay relative to control
[17] = target: CDK8/Cyclin C (Homo sapiens) (UniProt P49336+P24863); assay: Inhibition of recombinant full length human His-tagged CDK8/Cyclin-C expressed in baculovirus expression system at 1 uM by LanthaScreen assay relative to control
[18] = target: Serine/threonine-protein kinase MRCK beta (Homo sapiens) (UniProt Q9Y5S2); assay: Inhibition of recombinant human His-tagged CDC42 BPB expressed in baculovirus expression system at 1 uM by Z'-Lyte assay relative to control
[19] = target: Serine/threonine-protein kinase Chk1 (Homo sapiens) (UniProt O14757); assay: Inhibition of recombinant full length human His-tagged CHK1 expressed in baculovirus expression system at 1 uM by Z'-Lyte assay relative to control
[20] = test system: Epidermal growth factor receptor (Homo sapiens), P00533 [UNDEFINED MUTATION]; assay: Inhibition of recombinant human EGFR d746 to 750 deletion/T790M mutant at 1 uM by TR-FRET assay relative to control
[21] = target: Tyrosine-protein kinase ITK/TSK (Homo sapiens) (UniProt Q08881); assay: Inhibition of recombinant full length human GST-tagged ITK expressed in baculovirus expression system at 1 uM by TR-FRET assay relative to control
[22] = target: Serine/threonine-protein kinase PAK 2 (Homo sapiens) (UniProt Q13177); assay: Inhibition of recombinant human full length GST-tagged PAK2 expressed in baculovirus expression system at 1 uM by Z'-Lyte assay relative to control
[23] = target: 3-phosphoinositide-dependent protein kinase 1 (Homo sapiens) (UniProt O15530); assay: Inhibition of recombinant human full length His-tagged PDK1 expressed in baculovirus expression system at 1 uM by Z'-Lyte assay relative to control
[24] = target: cAMP-dependent protein kinase catalytic subunit alpha (Homo sapiens) (UniProt P17612); assay: Inhibition of recombinant human His-tagged PKA expressed in Escherichia coli at 1 uM by Z'-Lyte assay relative to control
[25] = target: Serine/threonine-protein kinase TAO2 (Homo sapiens) (UniProt Q9UL54); assay: Inhibition of recombinant human GST-tagged TAOK2 expressed in baculovirus expression system at 1 uM by Z'-Lyte assay relative to control
[26] = Oral bioavailability in ICR mouse at 5 mg/kg administered as single dose by LC-MS/MS analysis; type: ADME, organism-based; conditions: in vivo
[27] = AUC (0 to 48 hrs) in CD-1 mouse brain at 10 mg/kg, po administered as single dose by LC-MS/MS analysis; type: ADME, organism-based; set-up: dose 10 mg/kg, time < 48 hr, route oral; conditions: in vivo
U-87 MG [28] = assay: Antitumor activity against luciferase-fused human U87MG cells orthotopically xenografted in nude mouse assessed as increase in mouse life span at 6.25 mg/kg, po qd for 5 weeks relative to control; type: functional, U-87MG ATCC; conditions: 840 h
U-87 MG [29] = assay: Antitumor activity against luciferase-fused human U87MG cells orthotopically xenografted in nude mouse assessed as increase in mouse life span at 25 mg/kg, po qd for 5 weeks relative to control; type: functional, U-87MG ATCC; conditions: 840 h
Mus musculus [30] = assay: Toxicity in nude mouse orthotopically xenografted with luciferase-fused human U87MG cells assessed as body weight loss at 3.125 to 25 mg/kg, po qd for 5 weeks; type: organism-based; conditions: in vivo, 840 h
Mus musculus [31] = assay: Toxicity in nude mouse orthotopically xenografted with luciferase-fused human U87MG cells assessed as body weight loss at 50 mg/kg, po qd for 5 weeks and measured on day 28 relative to control; type: organism-based; conditions: in vivo, 840 h

Serine/threonine-protein kinase PAK 1 (Homo sapiens), sequence (Q13153 whole entry, canonical isoform): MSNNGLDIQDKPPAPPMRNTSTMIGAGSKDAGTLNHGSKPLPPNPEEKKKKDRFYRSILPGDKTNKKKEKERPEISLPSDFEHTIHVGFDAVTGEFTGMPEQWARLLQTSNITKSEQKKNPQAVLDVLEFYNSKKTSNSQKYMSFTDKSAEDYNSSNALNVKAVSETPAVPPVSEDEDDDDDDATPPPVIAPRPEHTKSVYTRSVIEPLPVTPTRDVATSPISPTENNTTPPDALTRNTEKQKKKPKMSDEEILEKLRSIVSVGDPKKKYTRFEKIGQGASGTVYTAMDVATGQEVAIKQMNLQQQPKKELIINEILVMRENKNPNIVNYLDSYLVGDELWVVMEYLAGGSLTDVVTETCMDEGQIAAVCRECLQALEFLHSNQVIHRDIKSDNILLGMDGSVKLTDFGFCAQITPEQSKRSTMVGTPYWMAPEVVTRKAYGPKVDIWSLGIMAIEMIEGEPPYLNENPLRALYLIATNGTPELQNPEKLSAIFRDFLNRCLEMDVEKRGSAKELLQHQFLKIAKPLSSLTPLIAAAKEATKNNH
Serine/threonine-protein kinase TAO2 (Homo sapiens), sequence (Q9UL54 whole entry): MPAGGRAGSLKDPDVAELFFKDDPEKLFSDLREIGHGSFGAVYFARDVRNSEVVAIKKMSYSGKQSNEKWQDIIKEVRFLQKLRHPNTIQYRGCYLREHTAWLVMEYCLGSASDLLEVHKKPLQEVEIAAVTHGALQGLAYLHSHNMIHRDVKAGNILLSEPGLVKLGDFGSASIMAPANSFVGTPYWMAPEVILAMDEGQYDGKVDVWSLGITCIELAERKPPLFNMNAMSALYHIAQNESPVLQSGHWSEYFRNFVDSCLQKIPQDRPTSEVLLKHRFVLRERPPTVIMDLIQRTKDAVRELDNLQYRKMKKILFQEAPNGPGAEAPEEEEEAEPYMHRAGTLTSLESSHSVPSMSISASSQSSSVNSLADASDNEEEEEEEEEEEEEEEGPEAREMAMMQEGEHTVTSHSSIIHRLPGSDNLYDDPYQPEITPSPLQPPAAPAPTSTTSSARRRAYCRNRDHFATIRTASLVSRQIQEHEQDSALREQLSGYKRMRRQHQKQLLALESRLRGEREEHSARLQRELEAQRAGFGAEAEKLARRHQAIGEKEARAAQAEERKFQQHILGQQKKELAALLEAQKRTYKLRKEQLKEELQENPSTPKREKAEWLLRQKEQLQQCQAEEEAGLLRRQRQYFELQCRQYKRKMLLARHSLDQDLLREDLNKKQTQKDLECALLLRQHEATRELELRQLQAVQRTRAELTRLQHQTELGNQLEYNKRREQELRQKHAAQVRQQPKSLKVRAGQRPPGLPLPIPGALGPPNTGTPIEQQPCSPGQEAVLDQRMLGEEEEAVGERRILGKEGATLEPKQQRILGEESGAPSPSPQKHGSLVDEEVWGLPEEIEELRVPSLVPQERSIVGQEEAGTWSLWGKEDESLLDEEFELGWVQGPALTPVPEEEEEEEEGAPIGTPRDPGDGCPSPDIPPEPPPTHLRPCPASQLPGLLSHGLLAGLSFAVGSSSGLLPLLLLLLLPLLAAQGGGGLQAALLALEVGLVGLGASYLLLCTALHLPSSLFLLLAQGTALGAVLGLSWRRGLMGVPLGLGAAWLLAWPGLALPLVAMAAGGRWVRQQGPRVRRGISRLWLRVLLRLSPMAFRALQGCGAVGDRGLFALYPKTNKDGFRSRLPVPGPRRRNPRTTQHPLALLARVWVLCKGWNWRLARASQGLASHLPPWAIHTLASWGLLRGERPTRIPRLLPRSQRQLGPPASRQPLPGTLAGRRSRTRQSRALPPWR
G protein-coupled receptor kinase 5 (Homo sapiens), sequence (P34947 whole entry, looked up): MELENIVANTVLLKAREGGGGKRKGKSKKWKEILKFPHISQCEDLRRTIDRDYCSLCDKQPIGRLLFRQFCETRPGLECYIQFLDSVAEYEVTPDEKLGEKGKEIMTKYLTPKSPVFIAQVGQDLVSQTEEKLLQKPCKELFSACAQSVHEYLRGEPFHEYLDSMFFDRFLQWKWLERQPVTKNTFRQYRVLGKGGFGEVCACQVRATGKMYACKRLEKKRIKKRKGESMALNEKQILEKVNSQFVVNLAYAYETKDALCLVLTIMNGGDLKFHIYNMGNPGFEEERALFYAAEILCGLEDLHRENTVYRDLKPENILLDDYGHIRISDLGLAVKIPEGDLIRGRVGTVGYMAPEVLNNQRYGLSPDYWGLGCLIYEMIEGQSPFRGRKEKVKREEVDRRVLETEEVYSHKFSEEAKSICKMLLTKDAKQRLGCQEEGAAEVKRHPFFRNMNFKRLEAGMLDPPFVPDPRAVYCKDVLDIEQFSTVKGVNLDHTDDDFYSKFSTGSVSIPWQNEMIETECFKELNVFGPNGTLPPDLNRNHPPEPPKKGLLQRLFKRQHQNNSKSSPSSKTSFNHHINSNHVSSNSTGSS
Cyclin-dependent kinase 4/cyclin D1, sequence (P11802 whole entry): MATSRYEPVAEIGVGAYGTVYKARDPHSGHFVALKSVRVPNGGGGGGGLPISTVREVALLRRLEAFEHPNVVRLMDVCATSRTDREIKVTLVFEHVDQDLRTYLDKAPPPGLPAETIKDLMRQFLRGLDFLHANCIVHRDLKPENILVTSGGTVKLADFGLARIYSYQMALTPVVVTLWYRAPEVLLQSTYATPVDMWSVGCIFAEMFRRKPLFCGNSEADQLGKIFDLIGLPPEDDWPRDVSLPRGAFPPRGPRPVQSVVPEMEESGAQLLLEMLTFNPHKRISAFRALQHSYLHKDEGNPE
Cyclin-dependent kinase 4/cyclin D1, sequence (P24385 whole entry, further chain): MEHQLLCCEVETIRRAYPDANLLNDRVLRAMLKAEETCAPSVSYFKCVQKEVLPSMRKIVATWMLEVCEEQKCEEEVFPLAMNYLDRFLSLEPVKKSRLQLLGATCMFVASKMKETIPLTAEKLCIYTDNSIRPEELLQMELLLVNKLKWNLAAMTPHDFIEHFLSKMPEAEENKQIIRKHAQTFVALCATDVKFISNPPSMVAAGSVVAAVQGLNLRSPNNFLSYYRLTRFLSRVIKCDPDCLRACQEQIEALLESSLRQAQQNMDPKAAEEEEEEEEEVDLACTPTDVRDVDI
Serine/threonine-protein kinase Chk1 (Homo sapiens), sequence (O14757 whole entry): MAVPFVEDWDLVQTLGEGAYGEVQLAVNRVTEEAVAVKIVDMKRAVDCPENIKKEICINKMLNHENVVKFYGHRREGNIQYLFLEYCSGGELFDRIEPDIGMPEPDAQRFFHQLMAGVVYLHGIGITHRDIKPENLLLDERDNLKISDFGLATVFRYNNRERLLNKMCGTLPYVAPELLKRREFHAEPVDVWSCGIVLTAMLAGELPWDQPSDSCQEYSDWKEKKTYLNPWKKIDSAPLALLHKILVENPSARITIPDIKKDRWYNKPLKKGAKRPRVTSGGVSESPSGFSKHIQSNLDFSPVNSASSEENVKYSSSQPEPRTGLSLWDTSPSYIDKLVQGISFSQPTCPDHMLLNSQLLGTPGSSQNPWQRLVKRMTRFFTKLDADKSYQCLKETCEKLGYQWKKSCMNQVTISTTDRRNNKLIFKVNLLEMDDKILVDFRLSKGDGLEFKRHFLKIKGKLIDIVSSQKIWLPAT
Cytoplasmic tyrosine-protein kinase BMX (Homo sapiens), sequence (P51813 whole entry, canonical isoform): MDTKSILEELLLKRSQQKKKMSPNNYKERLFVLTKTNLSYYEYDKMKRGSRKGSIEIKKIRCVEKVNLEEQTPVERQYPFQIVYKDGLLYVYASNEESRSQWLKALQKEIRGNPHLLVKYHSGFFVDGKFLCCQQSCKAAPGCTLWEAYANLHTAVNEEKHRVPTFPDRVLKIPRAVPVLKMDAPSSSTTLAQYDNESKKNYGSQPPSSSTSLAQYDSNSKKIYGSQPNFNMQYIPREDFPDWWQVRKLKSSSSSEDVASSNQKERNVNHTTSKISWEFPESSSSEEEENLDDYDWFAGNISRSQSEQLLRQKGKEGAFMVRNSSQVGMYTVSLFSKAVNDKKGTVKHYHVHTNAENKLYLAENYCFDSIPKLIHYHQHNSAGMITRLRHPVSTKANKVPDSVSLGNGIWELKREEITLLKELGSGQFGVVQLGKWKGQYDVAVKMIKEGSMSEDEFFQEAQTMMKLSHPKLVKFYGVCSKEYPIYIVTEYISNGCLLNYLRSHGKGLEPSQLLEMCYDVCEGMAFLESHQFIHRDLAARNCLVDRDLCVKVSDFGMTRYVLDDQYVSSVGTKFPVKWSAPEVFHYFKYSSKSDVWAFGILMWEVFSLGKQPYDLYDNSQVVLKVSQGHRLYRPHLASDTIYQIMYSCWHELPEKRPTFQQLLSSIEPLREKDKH
Casein kinase I isoform gamma-1 (Homo sapiens), sequence (Q9HCP0 whole entry, looked up, the tested form may be a part, canonical isoform): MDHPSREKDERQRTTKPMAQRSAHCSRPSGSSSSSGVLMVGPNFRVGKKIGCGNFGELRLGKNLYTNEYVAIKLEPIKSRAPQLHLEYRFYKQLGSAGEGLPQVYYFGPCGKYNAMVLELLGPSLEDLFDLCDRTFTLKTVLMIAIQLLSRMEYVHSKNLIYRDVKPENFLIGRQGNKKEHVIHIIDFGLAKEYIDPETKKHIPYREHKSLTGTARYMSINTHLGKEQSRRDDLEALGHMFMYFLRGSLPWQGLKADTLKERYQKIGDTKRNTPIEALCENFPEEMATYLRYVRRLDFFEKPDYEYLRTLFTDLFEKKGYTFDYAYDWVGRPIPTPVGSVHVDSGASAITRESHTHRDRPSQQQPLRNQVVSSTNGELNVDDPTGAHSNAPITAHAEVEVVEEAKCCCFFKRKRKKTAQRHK
Aurora kinase A (Homo sapiens), sequence (O14965 whole entry): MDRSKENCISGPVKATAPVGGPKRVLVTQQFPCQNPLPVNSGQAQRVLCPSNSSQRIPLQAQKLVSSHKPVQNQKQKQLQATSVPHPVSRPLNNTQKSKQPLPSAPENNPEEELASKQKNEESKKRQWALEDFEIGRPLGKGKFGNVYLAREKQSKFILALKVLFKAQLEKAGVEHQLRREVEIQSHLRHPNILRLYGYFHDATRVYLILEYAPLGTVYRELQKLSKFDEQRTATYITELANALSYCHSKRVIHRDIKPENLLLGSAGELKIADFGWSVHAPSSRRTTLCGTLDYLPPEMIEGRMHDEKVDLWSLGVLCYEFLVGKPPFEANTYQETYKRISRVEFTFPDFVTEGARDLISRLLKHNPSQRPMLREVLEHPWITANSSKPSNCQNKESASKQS

CC1=Nc2c(F)cc(-c3nc(Nc4ccc(C5CCN(C)CC5)cn4)ncc3F)cc2C12CCCC2 [CROZBACICLIB]
pIC50 [1]: 8.52
clearance [2]: 34.9 mL/min/kg
Vd [3]: 17.4 L/kg
inhibition [4]: -2%
inhibition [5]: 9%
inhibition [6]: 3%
inhibition [7]: -5%
inhibition [8]: -1%
inhibition [9]: -2%
inhibition [10]: 2%
inhibition [11]: 2%
inhibition [12]: 3%
inhibition [13]: -6%
inhibition [14]: 2%
inhibition [15]: 0%
inhibition [16]: 101%
inhibition [17]: 85%
inhibition [18]: 68%
inhibition [19]: 0%
inhibition [20]: 87%
inhibition [21]: 3%
inhibition [22]: 10%
inhibition [23]: 4%
inhibition [24]: 8%
inhibition [25]: 87%
bioavailability [26]: 75%
AUC [27]: 37178 ng·h/g
ILS at 6.25 mg/kg (U-87 MG [28]): 45%
ILS at 25 mg/kg (U-87 MG [29]): 103%
Activity (Mus musculus [30]): Non-Toxic
Activity (Mus musculus [31]): 4.2%
